A short description of the series: Human HepG2 cell viability assay in 384 well format. The format is toxicity, cell-based. Further details: dose 125 nL, time 70.5 hour; cytotoxicity at 70.5 h: concentration not given beside the values. As to conditions: HepG2 cells, read-out: Inhibition.
Consider `CC(NC(=O)Cc1cccs1)c1nnc2n1CCC2` (centres undefined), for which the cytotoxicity at 70.5 h is -7.18%.
For the compound `CC(=O)N1CC[C@H]2OCC[C@@H](C(=O)NCc3ccco3)[C@H]2C1`, the cytotoxicity at 70.5 h is -12.4%.
For the compound `COc1ccc(C2SCC(=O)Nc3ccsc32)cc1OC` (centres undefined), the cytotoxicity at 70.5 h was -11.5%.
Next, `COCc1cccc(S(=O)(=O)NCc2cnn(C)c2C)c1`: -9.83%; `CCCN1C[C@H]2CC[C@@H]1CN(Cc1cccc(O)c1)C2`: -9.57%; `CC(CN1CCOC1=O)NC(=O)c1cccc2cc[nH]c12` (centres undefined): -3.45%.
In the case of `CC1=N[C@@]2(CC[C@@H]3CNC[C@@H]32)C(=O)N1CC(C)C`, the cytotoxicity at 70.5 h is 31.4%.
`CC(C)c1nnc2n1CCN(Cc1ccc3c(c1)OCO3)CC2`: the cytotoxicity at 70.5 h is -11.5%.
Consider `Cc1csc(CNCC(C)c2nc3ccccc3o2)n1` (centres undefined), for which the cytotoxicity at 70.5 h came out at 15%.
Next, `O=c1cc(N2CCCC2)cnn1CC(F)F`: -6.13%.
`O=C(Nc1ccc(OC2CCCC2)cc1)C1CCCN1c1nccs1` (centres undefined): the cytotoxicity at 70.5 h worked out at 26.8%.
On to `CS(=O)(=O)NCCN1CCCC1c1ccc(Cl)cc1` (centres undefined), for which the cytotoxicity at 70.5 h was 12%.
On to `CCN1CCC(CNC(=O)Nc2cnn(CC(N)=O)c2)C1` (centres undefined), for which the cytotoxicity at 70.5 h is -8.69%.
For the compound `O=C(c1cccc(NCc2cccc(F)c2)c1)N1CCC(O)CC1`, the cytotoxicity at 70.5 h is 10.8%.
As for `CN(C)c1cc(CNc2cncc(-n3cccn3)n2)ccn1`, the cytotoxicity at 70.5 h is -15.7%.
With `Cc1cc(=O)[nH]c(CCNC(=O)C(c2ccc(F)cc2)N(C)C)n1` (centres undefined), the cytotoxicity at 70.5 h was determined as 4.61%.
The same measure for `Cc1nn(C)cc1-c1cc(C(F)F)nc(NC2CCCCC2)n1`: -11.8%; for `CCc1noc(C2CCCCN2C(=O)c2ccc(C)o2)n1` (centres undefined): 14%.
Regarding `CNc1ccnc(NCCC(=O)Nc2ccccc2OC)n1`, the cytotoxicity at 70.5 h was -3.36%.
Next, `Cc1oc(C(=O)O)cc1S(=O)(=O)Nc1cc(Cl)ccc1F`: -7.55%; `CCn1cnnc1C1CCN(C(=O)C(OC)c2ccccc2)CC1` (centres undefined): -0.299%.
Consider `Cc1nn(C)c(N(C)C)c1CNC1CCOc2c(Cl)cccc21` (centres undefined), for which the cytotoxicity at 70.5 h came to 23.4%.
Take `CN(C(=O)c1ccncc1)c1ccccc1S(C)(=O)=O`: the cytotoxicity at 70.5 h was -2.3%.
Turning to `COCCN(Cc1ccoc1)S(=O)(=O)c1ccc(F)c(C)c1`, the cytotoxicity at 70.5 h is -11%.
For `CCOC(=O)N[C@H]1C[C@@H](C(=O)NCCc2cccc(Cl)c2)N(C)C1`, the cytotoxicity at 70.5 h is -23.6%.
Next, `CCCc1ccc(CN2CCC3(CC2)CNC(=O)C3)o1`: 21.8%.
The same measure for `CS(=O)(=O)CCCNC1(c2cccc(Cl)c2)CCCC1`: -5.23%.
`Cc1ccc(C)c(CS(=O)(=O)CC(=O)Nc2ccc(F)cc2F)c1`: the cytotoxicity at 70.5 h was -7.2%.
In the case of `CC(C)(C)SCC(=O)Nc1cc(-n2nnnc2C2CC2)ccc1F`, the cytotoxicity at 70.5 h stood at 10.5%.
`CS(=O)(=O)NCc1cc(-c2cc(F)cc(F)c2)nc(N2CC[C@H](O)C2)n1`: the cytotoxicity at 70.5 h was -10.5%.
Next, `COCCN1CCN(Cc2ccco2)Cc2ccc(C)nc21`: 2.35%; `CNC(=O)[C@H]1CC[C@@H]2[C@@H](CCN2c2ncccn2)O1`: 3.25%.
Turning to `Cc1cncc(C2CCN(Cc3cnc(C)nc3)CC2)n1`, the cytotoxicity at 70.5 h is -7.22%.
`Cc1nc(Nc2ncccn2)cc(C2CCCN2CC(C)C)n1` (centres undefined): the cytotoxicity at 70.5 h worked out at 43.1%.
The same measure for `Cc1nc(N(C)C)nc(C)c1NC(=O)c1ccccc1C(F)(F)F`: -11%.
As for `CCc1ccc(-c2ncc3c(n2)N(C)CCN(CCN(C)C)C3=O)cc1`, the cytotoxicity at 70.5 h was -5.02%.
Next, `Cc1cc(NC(=O)C(C)N2CCN(c3ccc(C#N)cc3F)CC2)no1` (centres undefined): -11.7%; `Cc1ccnc(C(NC(=O)c2ccc(O)nc2C)C2CC2)n1` (centres undefined): 16.3%.
Next, `O=C(CCc1nnc2ccccn2c1=O)NCc1ccc2c(c1)OCO2`: 25.1%; `O=C(c1ccc(NC2CC2)nc1)N1CCC(Nc2cccnn2)CC1`: -8.71%.
With `CC(=O)NC1CCCc2c1[nH]c1ccc(F)cc21` (centres undefined), the cytotoxicity at 70.5 h amounted to 29.6%.
Consider `CCOC(=O)Cc1csc(NC(=O)c2ccc(=O)[nH]n2)n1`, for which the cytotoxicity at 70.5 h is -5.3%.
Regarding `COc1cc(NCC(c2ccccn2)N2CCOCC2)ncn1` (centres undefined), the cytotoxicity at 70.5 h was -3.18%.
On to `CC(=O)N1CCN(c2cc(-n3cnc(C)c3C)nc(C)n2)CC1`, for which the cytotoxicity at 70.5 h was -6.25%.
In the case of `Cc1cnn(C2CN(c3nc(-c4ccncc4)nc4c3CCC4)C2)c1`, the cytotoxicity at 70.5 h was -6.05%.
Take `O=C1c2cnc(N3CCCC3)nc2CN1C1CCS(=O)(=O)C1` (centres undefined): the cytotoxicity at 70.5 h is -2.78%.
On to `CCn1cnnc1C1CCN(C(=O)c2ccc(OC(C)C)nc2)CC1`, for which the cytotoxicity at 70.5 h is 5.53%.
With `CCn1cc(CNc2ccc(F)c(F)c2)cn1`, the cytotoxicity at 70.5 h came out at 8.3%.
Next, `O=C(CSc1ccccc1)N1CCc2c(ncnc2N2CCOCC2)C1`: 0.558%; `COc1c(C)cnc(CNCC(C)C)c1C`: -4.09%.
Regarding `COCC(=O)NCCc1nc(N(C)C)ncc1-c1ccncc1`, the cytotoxicity at 70.5 h was -6.86%.
Take `CCC(=O)Nc1ccccc1Sc1nc(Br)nn1C`: the cytotoxicity at 70.5 h is -8.59%.
Take `Cc1nc(C)n(CC2CCCCN2CC(=O)Nc2nncs2)n1` (centres undefined): the cytotoxicity at 70.5 h was -1.06%.
Next, `CN(C)[C@@H]1CCN(C(=O)Cc2cccs2)[C@H]1Cc1ccncc1`: -8%.
For `O=C(CN1CC(c2nc(C3CC3)no2)C1)N1CCOCC1`, the cytotoxicity at 70.5 h was -17.5%.
With `O=C(c1cccnc1SC/C=C/c1ccccc1)N1CCOCC(O)C1` (centres undefined), the cytotoxicity at 70.5 h stood at 1.08%.
`Cc1cnn(CC2CCCCN2C(=O)Cc2c(C)nn(C)c2C)c1` (centres undefined): the cytotoxicity at 70.5 h is -3.41%.
For `Nc1nc(N)c2c(n1)OC1(CCN(Cc3nccs3)C1)C2` (centres undefined), the cytotoxicity at 70.5 h is -6.73%.
In the case of `Cn1c(CC(=O)O)c(Sc2ccccc2)c2ccccc21`, the cytotoxicity at 70.5 h was -0.644%.
In the case of `Cc1ccc(CN2CCOCS2(=O)=O)cc1F`, the cytotoxicity at 70.5 h was -9.79%.
Take `CC(C)c1nccn1CCCNC(=O)c1ccc(-c2cncnc2)nc1`: the cytotoxicity at 70.5 h was -9.84%.
In the case of `O=c1cc(C2CCNCC2)nc(CCc2ccccn2)[nH]1`, the cytotoxicity at 70.5 h is -2.52%.
As for `Cc1cc(C(=O)N2CCCN(c3nccs3)CC2)c(C)n1C(C)C`, the cytotoxicity at 70.5 h was determined as 29.5%.
On to `Cc1ncc(CN2CCc3c(nc4cc(C5CC5)nn4c3O)C2)n1C`, for which the cytotoxicity at 70.5 h was -2.73%.
With `CCc1nnc2n1CCN(C(=O)CCOc1ccc(C)cc1C)C2`, the cytotoxicity at 70.5 h was -4.53%.
For `O=C(O)[C@]12CCCN(Cc3ccsc3)C[C@H]1CN(c1ncccn1)C2`, the cytotoxicity at 70.5 h came out at 1.99%.
Consider `O=C(Cc1csc(N2CCNC2=O)n1)NCC1(c2ccccc2)CC1`, for which the cytotoxicity at 70.5 h was 24.5%.
The same measure for `Cc1cc(NC(=O)CSc2nc(=O)ccn2C(C)C)no1`: -0.711%.
As for `Cc1cc(CN2CC[C@H]3[C@H]2CCN3CC(=O)N(C)C)oc1C`, the cytotoxicity at 70.5 h was -5%.
Take `Cc1ccc(CN2CCC3(CC(C(=O)NCC4CC4)=NO3)C2)cc1C` (centres undefined): the cytotoxicity at 70.5 h is 27.5%.
Turning to `CC(C)c1noc(C(C)N2CCN(Cc3nc4ccccc4[nH]3)CC2)n1` (centres undefined), the cytotoxicity at 70.5 h is -8.5%.
On to `O=C(c1ccc2c(c1)CCC2)N1CCn2ncnc2C1`, for which the cytotoxicity at 70.5 h was 3.48%.
As for `Cc1c(C2SCC(=O)Nc3c2c(O)nn3C2CCCC2)cnn1C` (centres undefined), the cytotoxicity at 70.5 h was -22.8%.
The same measure for `O=C1OCCC1N1CCN(C(=O)Cc2c[nH]c3ccccc23)CC1` (centres undefined): 7.81%; for `Cc1nnc(CN2CCN(CC(O)c3cccc(F)c3)CC2)n1C` (centres undefined): -15.6%.
In the case of `O=C(CN1CCC2(CCCN(CCO)C2=O)C1)NCCc1ccccc1` (centres undefined), the cytotoxicity at 70.5 h was found to be 11.6%.
The same measure for `Cc1nnc(C(C)N2CCCN(Cc3ccc(F)cc3)CC2)o1` (centres undefined): -2.19%.
As to `CN(C)CCNC(=O)c1ccc(S(=O)(=O)N[C@@H]2CCNC2)cc1`, the cytotoxicity at 70.5 h is -13.7%.
`Cc1cc(C2CCCN2Cc2ccn(C)c(=O)c2)on1` (centres undefined): the cytotoxicity at 70.5 h was -3.44%.
In the case of `CC(C)Cc1nc(CS(=O)(=O)c2ccccc2)no1`, the cytotoxicity at 70.5 h is -2.63%.
In the case of `COc1cccc(Cn2cc(N3C(=O)[C@H]4CCCC[C@H]4C3=O)cn2)c1`, the cytotoxicity at 70.5 h was 26.3%.
In the case of `Cc1ccc(-c2nc(CN3CCOC(Cn4cccn4)C3)no2)cc1` (centres undefined), the cytotoxicity at 70.5 h is -4.16%.
Take `Cn1cc(C(=O)N2CC[C@@H]3[C@@H]2CCN3Cc2cccc(C#N)c2)cn1`: the cytotoxicity at 70.5 h was determined as 0.809%.
The same measure for `CN(Cc1cccc(F)c1)Cc1nc2c(cnn2C)c(=O)[nH]1`: 5.31%; for `CCOc1ccc(S(=O)(=O)NCc2cccnc2N(C)C)cc1`: 52.9%; for `N[C@H]1CN(C(=O)c2ccccc2OCCc2ccccc2)C[C@@H]1C1CC1`: -8.08%.
Turning to `O=C(NCC(F)(F)F)c1coc(COc2cccc(F)c2)n1`, the cytotoxicity at 70.5 h is 14.5%.
Consider `CC[C@H]1COCCN1C(=O)c1cnc(N2CCN(C)CC2)nc1C`, for which the cytotoxicity at 70.5 h is -8.1%.
The same measure for `Cc1ccc(CN2CCC3(CC2)C(=O)NCCN3CC2CC2)o1`: 8.52%.
Consider `Cn1cc(-c2ncc3c(c2C(=O)O)CCN(Cc2ccco2)C3)cn1`, for which the cytotoxicity at 70.5 h is -5.93%.
The same measure for `COCC1c2nnn(CC3CC3)c2CCN1Cc1ccncc1` (centres undefined): -8.11%.
Turning to `CC(=O)N1CC(=O)N(c2cnn(C)c2)CC12CCN(Cc1ccoc1)C2` (centres undefined), the cytotoxicity at 70.5 h came to 1.31%.
`Cc1ccc(=O)n(CC(=O)N(C)Cc2csc(-c3cccs3)n2)n1`: the cytotoxicity at 70.5 h is -7.16%.
The same measure for `Cc1ccc(N2CCCC(N(C)Cc3noc(C4CC4)n3)C2)nn1` (centres undefined): -9.69%.
Consider `CC(=O)CCCC(=O)N(Cc1ccsc1)CC(C)C`, for which the cytotoxicity at 70.5 h is -5.67%.
Take `Cc1ccc2nc(C)cc(C(=O)NCc3csc(N(C)C)n3)c2c1`: the cytotoxicity at 70.5 h is -2.75%.
In the case of `O=C(c1cn(-c2ccccc2Cl)nn1)N1CCN(CCO)CC1`, the cytotoxicity at 70.5 h is -5.32%.
On to `CC1=N[C@@]2(CC[C@@H]3CN(Cc4ccccc4C)C[C@@H]32)C(=O)N1CC1CC1`, for which the cytotoxicity at 70.5 h is -9.24%.
The same measure for `CNC(=O)C1CCN(c2ncc3c(n2)CCN3c2ccccc2)C1` (centres undefined): -4.33%.

The values are drawn from ChEMBL document CHEMBL3507680, “University of Dundee, Gates Library screen for HepG2 cell viability”.
